Experimental data: patent publication EP4745137A1 (Gluetacs Therapeutics (Shanghai) Co., Ltd., priority 2023, dated 2025)

Assays:
WEE1 = target: T1, WEE1 (Homo sapiens, UniProt P30291+Q96SW2); test: Western-blot assay of substrate protein degradation in hPBMCs, WEE1; format: cell-based; conditions: 24 hours of compound treatment, 50 nM and 500 nM tested (concentration behind the class not stated)
T1 construct: endogenous in cells; host or cells: hPBMCs (Milecell Biotechnologies)

IKZF1 = target: T2, IKZF1 (Homo sapiens, UniProt Q13422+Q96SW2); test: Western-blot assay of substrate protein degradation in hPBMCs, IKZF1; format: cell-based; conditions: 24 hours of compound treatment, 50 nM and 500 nM tested (concentration behind the class not stated)
T2 construct: endogenous in cells; host or cells: hPBMCs (Milecell Biotechnologies)

IKZF2 = target: T3, IKZF2 (Homo sapiens, UniProt Q96SW2+Q9UKS7); test: Western-blot assay of substrate protein degradation in hPBMCs, IKZF2; format: cell-based; conditions: 24 hours of compound treatment, 50 nM and 500 nM tested (concentration behind the class not stated)
T3 construct: endogenous in cells; host or cells: hPBMCs (Milecell Biotechnologies)

IKZF3 = target: T4, IKZF3 (Homo sapiens, UniProt Q96SW2+Q9UKT9); test: Western-blot assay of substrate protein degradation in hPBMCs, IKZF3; format: cell-based; conditions: 24 hours of compound treatment, 50 nM and 500 nM tested (concentration behind the class not stated)
T4 construct: endogenous in cells; host or cells: hPBMCs (Milecell Biotechnologies)

CK1α = target: T5, CK1α (Homo sapiens, UniProt P48729+Q96SW2); test: Western-blot assay of substrate protein degradation in hPBMCs, CK1α; format: cell-based; conditions: 24 hours of compound treatment, 50 nM and 500 nM tested (concentration behind the class not stated)
T5 construct: endogenous in cells; host or cells: hPBMCs (Milecell Biotechnologies)

GSPT1 = target: T6, GSPT1 (Homo sapiens, UniProt P15170+Q96SW2); test: Western-blot assay of substrate protein degradation in hPBMCs, GSPT1; format: cell-based; conditions: 24 hours of compound treatment, 50 nM and 500 nM tested (concentration behind the class not stated)
T6 construct: endogenous in cells; host or cells: hPBMCs (Milecell Biotechnologies)

[1] = target: T7, human Cereblon WT GST-tagged protein (Homo sapiens, UniProt Q96SW2); test: CRBN-binding affinity by HTRF (CEREBLON BINDING kit); conditions: HTRF inhibitory activity, CEREBLON BINDING kit; read-out: HTRF IC50
T7 construct: purchased CISBIO 64BDCRBNPEH

MM.1S = test: Tumor cell proliferation inhibition (CellTiter-Meiluncell Luminescent Cell Viability Assay), MM.1S; conditions: Homo sapiens, MM1.S, read-out: inhibitory activity (IC50, nM) against tumor cells proliferation, MM.1S
Procedure: The tumor cells used herein were cultured in a cell culture medium listed in table 2 at 37°C in an incubator with 5% CO2. Prior to experimentation, all cell lines used were correctly identified by STR profiling, and tested negative for mycoplasma contamination using a mycoplasma detection kit through routine screenings.
On the following day, the test compounds of the present disclosure were subjected to serial dilution. […] Subsequently, 0.5 µL of the test compound dilution was transferred into the 96-well plate containing the cells, with each well containing 100 µL of cell culture medium. […] Into the 96-well plate, the diluted test compounds and corresponding detection reagents were added, resulting in final test compound concentrations of 500 nM and 10 nM, respectively.
After the cells were treated with the compounds of the present disclosure for a specified period (the treatment durations were shown in Table 3), the cell viability assay reagent was added to the culture medium according to the kit's instructions to determine cell viability. […] All controls were treated using the same procedure as the compounds of the present disclosure. The growth inhibition curves for the compounds of the present disclosure were plotted using Prism GraphPad software, and the IC50 values were calculated therefrom.

Jurkat = test: Tumor cell proliferation inhibition (CellTiter-Meiluncell Luminescent Cell Viability Assay), Jurkat; conditions: Homo sapiens, read-out: inhibitory activity (IC50, nM) against tumor cells proliferation, Jurkat
[2] = tested on: Human acute T lymphocytic leukemia cells (Molt-4); test: Tumor cell proliferation inhibition (CellTiter-Meiluncell Luminescent Cell Viability Assay), Molt-4; conditions: MOLT-4, read-out: inhibitory activity (IC50, nM) against tumor cells proliferation, Molt-4
MV-4-11 = test: Tumor cell proliferation inhibition (CellTiter-Meiluncell Luminescent Cell Viability Assay), MV-4-11; conditions: Homo sapiens, MV4-11, read-out: inhibitory activity (IC50, nM) against tumor cells proliferation, MV-4-11
CCRF-CEM = test: Tumor cell proliferation inhibition (CellTiter-Meiluncell Luminescent Cell Viability Assay), CCRF-CEM; conditions: Homo sapiens, read-out: inhibitory activity (IC50, nM) against tumor cells proliferation, CCRF-CEM
NCI-H1975 = test: Tumor cell proliferation inhibition (CellTiter-Meiluncell Luminescent Cell Viability Assay), NCI-H1975; conditions: Homo sapiens, NCI-H1975, read-out: inhibitory activity (IC50, nM) against tumor cells proliferation, H1975
SR = test: Tumor cell proliferation inhibition (CellTiter-Meiluncell Luminescent Cell Viability Assay), SR; conditions: Homo sapiens, read-out: inhibitory activity (IC50, nM) against tumor cells proliferation, SR
TMD8 = test: Tumor cell proliferation inhibition (CellTiter-Meiluncell Luminescent Cell Viability Assay), TMD8; conditions: Homo sapiens, TMD8, read-out: inhibitory activity (IC50, nM) against tumor cells proliferation, TMD8

T2 sequence (Q13422 whole entry): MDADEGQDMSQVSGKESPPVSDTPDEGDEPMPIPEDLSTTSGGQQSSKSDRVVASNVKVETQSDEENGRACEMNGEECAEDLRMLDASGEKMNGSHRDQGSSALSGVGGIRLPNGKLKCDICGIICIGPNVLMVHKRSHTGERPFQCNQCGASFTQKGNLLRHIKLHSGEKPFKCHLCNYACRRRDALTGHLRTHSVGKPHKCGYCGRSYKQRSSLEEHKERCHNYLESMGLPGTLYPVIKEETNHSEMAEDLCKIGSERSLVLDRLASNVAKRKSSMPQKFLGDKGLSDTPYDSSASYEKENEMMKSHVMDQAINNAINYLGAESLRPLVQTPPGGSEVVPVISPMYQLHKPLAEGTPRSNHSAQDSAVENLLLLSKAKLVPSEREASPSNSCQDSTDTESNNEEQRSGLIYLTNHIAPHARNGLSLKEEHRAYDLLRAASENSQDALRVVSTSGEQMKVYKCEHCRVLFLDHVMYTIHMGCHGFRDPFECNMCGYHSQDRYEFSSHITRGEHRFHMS
T2 sequence (Q96SW2 whole entry): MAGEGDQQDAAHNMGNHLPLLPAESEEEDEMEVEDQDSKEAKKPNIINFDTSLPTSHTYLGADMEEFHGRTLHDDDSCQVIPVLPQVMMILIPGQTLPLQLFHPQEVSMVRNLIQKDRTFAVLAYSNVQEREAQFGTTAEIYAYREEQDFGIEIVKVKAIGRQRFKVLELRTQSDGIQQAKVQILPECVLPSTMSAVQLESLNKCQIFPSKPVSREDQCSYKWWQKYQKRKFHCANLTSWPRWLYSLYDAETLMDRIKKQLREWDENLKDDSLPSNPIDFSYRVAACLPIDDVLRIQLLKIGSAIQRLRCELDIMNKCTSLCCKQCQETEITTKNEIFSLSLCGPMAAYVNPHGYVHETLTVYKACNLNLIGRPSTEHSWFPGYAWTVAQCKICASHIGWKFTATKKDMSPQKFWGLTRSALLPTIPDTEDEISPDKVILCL
T2 sequence (Q16531 whole entry partner): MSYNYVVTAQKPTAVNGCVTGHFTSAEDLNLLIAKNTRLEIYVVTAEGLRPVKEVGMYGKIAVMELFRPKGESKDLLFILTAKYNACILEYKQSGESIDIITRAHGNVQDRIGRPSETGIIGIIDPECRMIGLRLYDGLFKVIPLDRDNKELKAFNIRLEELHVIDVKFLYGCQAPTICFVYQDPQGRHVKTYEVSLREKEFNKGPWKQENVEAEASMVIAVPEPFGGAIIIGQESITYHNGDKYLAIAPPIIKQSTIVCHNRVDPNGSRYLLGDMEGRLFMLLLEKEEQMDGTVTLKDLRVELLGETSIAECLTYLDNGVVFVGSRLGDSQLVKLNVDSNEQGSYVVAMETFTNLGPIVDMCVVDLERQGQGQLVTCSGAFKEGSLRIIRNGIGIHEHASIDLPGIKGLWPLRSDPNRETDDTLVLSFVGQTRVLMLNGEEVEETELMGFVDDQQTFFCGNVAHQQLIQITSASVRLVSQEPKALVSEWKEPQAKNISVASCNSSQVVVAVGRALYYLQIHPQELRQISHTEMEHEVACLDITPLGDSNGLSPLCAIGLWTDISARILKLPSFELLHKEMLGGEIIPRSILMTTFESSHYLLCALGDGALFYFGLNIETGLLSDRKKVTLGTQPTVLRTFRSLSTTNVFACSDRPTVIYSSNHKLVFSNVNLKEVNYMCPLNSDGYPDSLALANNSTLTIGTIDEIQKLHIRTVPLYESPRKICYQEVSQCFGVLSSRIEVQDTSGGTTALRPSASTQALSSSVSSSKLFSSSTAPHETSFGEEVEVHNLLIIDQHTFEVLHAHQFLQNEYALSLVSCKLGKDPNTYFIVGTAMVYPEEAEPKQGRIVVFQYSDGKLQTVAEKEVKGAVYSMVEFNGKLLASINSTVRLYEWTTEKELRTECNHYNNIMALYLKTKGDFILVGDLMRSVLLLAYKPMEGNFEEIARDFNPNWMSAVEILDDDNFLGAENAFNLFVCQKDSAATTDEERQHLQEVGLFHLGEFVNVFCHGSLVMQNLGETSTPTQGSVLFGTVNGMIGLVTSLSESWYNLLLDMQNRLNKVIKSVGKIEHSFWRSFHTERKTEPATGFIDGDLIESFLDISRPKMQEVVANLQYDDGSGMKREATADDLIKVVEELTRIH
T1 sequence (P30291 whole entry): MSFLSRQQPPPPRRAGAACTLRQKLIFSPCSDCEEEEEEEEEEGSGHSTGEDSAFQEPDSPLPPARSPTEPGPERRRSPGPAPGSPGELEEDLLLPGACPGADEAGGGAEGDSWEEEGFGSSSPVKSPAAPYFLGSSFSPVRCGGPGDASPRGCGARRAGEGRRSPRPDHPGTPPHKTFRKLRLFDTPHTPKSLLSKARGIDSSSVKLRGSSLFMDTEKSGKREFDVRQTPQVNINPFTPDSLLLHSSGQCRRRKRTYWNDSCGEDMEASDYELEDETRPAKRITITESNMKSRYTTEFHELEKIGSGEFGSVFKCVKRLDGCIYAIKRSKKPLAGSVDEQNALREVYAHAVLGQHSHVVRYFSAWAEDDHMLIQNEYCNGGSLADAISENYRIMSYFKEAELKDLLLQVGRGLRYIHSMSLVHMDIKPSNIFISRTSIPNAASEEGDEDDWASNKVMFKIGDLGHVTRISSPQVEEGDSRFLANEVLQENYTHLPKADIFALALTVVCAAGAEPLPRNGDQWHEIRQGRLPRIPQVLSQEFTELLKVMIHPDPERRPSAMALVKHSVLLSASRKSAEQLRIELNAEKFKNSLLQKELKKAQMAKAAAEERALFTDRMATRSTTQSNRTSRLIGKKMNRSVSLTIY
T1 sequence (Q96SW2 whole entry): as the sequence (Q96SW2 whole entry) above
T1 sequence (Q16531 whole entry partner): as the sequence (Q16531 whole entry partner) above
T3 sequence (Q9UKS7 whole entry): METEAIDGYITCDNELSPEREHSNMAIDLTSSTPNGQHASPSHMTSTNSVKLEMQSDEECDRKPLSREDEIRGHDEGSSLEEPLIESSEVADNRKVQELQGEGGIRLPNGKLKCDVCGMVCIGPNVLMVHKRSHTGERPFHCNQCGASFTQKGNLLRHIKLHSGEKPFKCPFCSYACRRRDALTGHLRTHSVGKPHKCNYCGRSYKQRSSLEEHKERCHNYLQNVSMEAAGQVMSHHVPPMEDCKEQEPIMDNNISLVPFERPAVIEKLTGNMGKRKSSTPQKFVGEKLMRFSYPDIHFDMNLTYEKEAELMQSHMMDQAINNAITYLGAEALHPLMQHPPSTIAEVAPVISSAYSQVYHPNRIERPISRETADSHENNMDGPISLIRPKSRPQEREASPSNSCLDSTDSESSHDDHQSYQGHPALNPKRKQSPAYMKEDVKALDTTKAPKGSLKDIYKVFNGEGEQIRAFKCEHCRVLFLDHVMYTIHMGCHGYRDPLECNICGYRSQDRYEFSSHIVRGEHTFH
T3 sequence (Q96SW2 whole entry): as the sequence (Q96SW2 whole entry) above
T3 sequence (Q16531 whole entry partner): as the sequence (Q16531 whole entry partner) above
T5 sequence (P48729 whole entry): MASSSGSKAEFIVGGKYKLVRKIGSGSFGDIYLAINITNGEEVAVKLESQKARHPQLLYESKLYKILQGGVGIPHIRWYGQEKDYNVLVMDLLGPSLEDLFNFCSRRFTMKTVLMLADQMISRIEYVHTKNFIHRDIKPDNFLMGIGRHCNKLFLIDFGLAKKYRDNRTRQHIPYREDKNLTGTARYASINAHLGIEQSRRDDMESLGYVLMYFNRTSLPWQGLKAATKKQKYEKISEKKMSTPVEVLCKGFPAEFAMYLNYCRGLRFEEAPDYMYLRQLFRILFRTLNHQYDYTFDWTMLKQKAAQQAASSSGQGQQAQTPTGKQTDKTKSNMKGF
T5 sequence (Q96SW2 whole entry): as the sequence (Q96SW2 whole entry) above
T5 sequence (Q16531 whole entry partner): as the sequence (Q16531 whole entry partner) above
T7 sequence (Q96SW2 whole entry): as the sequence (Q96SW2 whole entry) above
T4 sequence (Q9UKT9 whole entry): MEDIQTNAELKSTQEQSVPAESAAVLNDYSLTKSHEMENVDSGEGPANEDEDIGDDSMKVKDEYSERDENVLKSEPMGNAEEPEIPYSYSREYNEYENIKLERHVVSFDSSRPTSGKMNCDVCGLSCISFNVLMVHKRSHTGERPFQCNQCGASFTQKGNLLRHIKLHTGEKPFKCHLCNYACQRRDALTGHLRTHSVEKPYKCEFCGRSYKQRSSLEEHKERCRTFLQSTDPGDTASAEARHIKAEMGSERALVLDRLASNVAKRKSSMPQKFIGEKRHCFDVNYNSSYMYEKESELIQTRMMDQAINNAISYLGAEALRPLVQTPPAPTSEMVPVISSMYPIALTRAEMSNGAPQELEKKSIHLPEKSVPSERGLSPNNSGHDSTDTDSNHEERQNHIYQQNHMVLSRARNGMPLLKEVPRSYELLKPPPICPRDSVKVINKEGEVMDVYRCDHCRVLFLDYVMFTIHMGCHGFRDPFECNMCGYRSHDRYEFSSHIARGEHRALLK
T4 sequence (Q96SW2 whole entry): as the sequence (Q96SW2 whole entry) above
T4 sequence (Q16531 whole entry partner): as the sequence (Q16531 whole entry partner) above

IC50 [1] [nM]	IC50 (MM.1S) [nM]	IC50 (Jurkat) [nM]	IC50 [2] [nM]	IC50 (MV-4-11) [nM]	IC50 (CCRF-CEM) [nM]	IC50 (NCI-H1975) [nM]	IC50 (SR) [nM]	IC50 (TMD8) [nM]	Structure (SMILES)	Weel substrate protein remaining % (WEE1)	IKZF 1 substrate protein remaining % (IKZF1)	IKZF2 substrate protein remaining % (IKZF2)	IKZF3 substrate protein remaining % (IKZF3)	CK1a substrate protein remaining % (CK1α)	GSPT1 substrate protein remaining % (GSPT1)
1000 to 1500	100 to 500	50 to 100	10 to 50	10 to 50	10 to 50	500 to 1000			Cn1cc(C2=CCN(Cc3ccc4c(c3)C(=O)N(C3CCC(=O)NC3=O)C4=O)CC2)c2ccc(F)cc21 (stereo not shown) [GT-06636, 2-(2,6-dioxopiperidin-3-yl)-5-((4-(6-fluoro-1-methyl-1H-indol-3-yl)-3,6-dihydropyridin-1(2H)-yl)methyl)isoindoline-1,3-dione]	A (0% ≤ substrate protein remaining % ≤ 80%)	A (0% ≤ substrate protein remaining % ≤ 80%)	A (0% ≤ substrate protein remaining % ≤ 80%)	A (0% ≤ substrate protein remaining % ≤ 80%)	A (0% ≤ substrate protein remaining % ≤ 80%)	A (0% ≤ substrate protein remaining % ≤ 80%)
1000 to 1500	100 to 500	50 to 100	10 to 50	10 to 50	10 to 50				CC(C)c1cc2c(C3=CCN(Cc4ccc5c(c4)C(=O)N(C4CCC(=O)NC4=O)C5=O)CC3)ncnc2s1 (stereo not shown) [GT-06656, 2-(2,6-dioxopiperidin-3-yl)-5-((4-(6-isopropylthieno[2,3-d]pyrimidin-4-yl)-3,6-dihydropyridin-1(2H)-yl)methyl)isoindoline-1,3-dione]	A (0% ≤ substrate protein remaining % ≤ 80%)	A (0% ≤ substrate protein remaining % ≤ 80%)	A (0% ≤ substrate protein remaining % ≤ 80%)	A (0% ≤ substrate protein remaining % ≤ 80%)	B (80%< substrate protein remaining %≤ 100%)	A (0% ≤ substrate protein remaining % ≤ 80%)
500 to 1000	100 to 500	50 to 100	10 to 50	50 to 100	10 to 50	100 to 500	500 to 1000	500 to 1000	O=C1CCC(N2C(=O)c3ccc(CN4CC=C(c5ncnc6sc(-c7ccccc7)cc56)CC4)cc3C2=O)C(=O)N1 (stereo not shown) [GT-06675, 2-(2,6-dioxopiperidin-3-yl)-5-((4-(6-phenylthieno[2,3-d]pyrimidin-4-yl)-3,6-dihydropyridin-1(2H)-yl)methyl)isoindoline-1,3-dione]	B (80%< substrate protein remaining %≤ 100%)	B (80%< substrate protein remaining %≤ 100%)	B (80%< substrate protein remaining %≤ 100%)	B (80%< substrate protein remaining %≤ 100%)	A (0% ≤ substrate protein remaining % ≤ 80%)	B (80%< substrate protein remaining %≤ 100%)
